The supplement of paper PMC9938120

Tests used:
Experiment in all cases: drug sensitivity score (DSS3, normalised partial AUC of % inhibition dose-response) (DSS (score)); higher = more sensitive (stronger inhibition of viability); extreme values may be limits of the assay
[1] = system: FMOC04 (patient-derived high-grade serous ovarian cancer cells); conditions: 72 h; library: FO5A; assay format: 2D, 384-well, CellTiter-Glo
Outline: (§1)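 Early-passage (under 10) patient-derived ovarian cancer cells were dispensed onto 384-well flat clear-bottom plates pre-plated with compounds at five concentrations spanning a 10,000-fold range, then incubated 72 h at 37 °C, 5% CO2. Viability was read with CellTiter-Glo, and the data were processed in Breeze. The drug sensitivity score is a partial area under the percent-inhibition dose-response curve divided by the log of the upper asymptote, with higher values meaning greater sensitivity.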

[2] = system: FMOC24 (patient-derived high-grade serous ovarian cancer cells); conditions: 72 h; library: FO5A; assay format: 2D, 384-well, CellTiter-Glo
Outline: as §1

[3] = system: FMOC06 (patient-derived mucinous ovarian cancer cells); conditions: 72 h; library: FO5A; assay format: 2D, 384-well, CellTiter-Glo
Outline: as §1

[4] = system: FMOC03 (patient-derived mucinous ovarian cancer cells); conditions: 72 h; library: FO5A; assay format: 2D, 384-well, CellTiter-Glo
Outline: as §1

[5] = system: FMOC09 (patient-derived high-grade serous ovarian cancer cells); conditions: 72 h; library: FO5A; assay format: 2D, 384-well, CellTiter-Glo
Outline: as §1

[6] = system: FMOC17 (patient-derived low-grade serous ovarian cancer cells); conditions: 72 h; library: FO5A; assay format: 2D, 384-well, CellTiter-Glo
Outline: as §1

[7] = system: FMOC28 (patient-derived low-grade serous ovarian cancer cells); conditions: 72 h; library: FO5A; assay format: 2D, 384-well, CellTiter-Glo
Outline: as §1

[8] = system: FMOC02_1 (patient-derived low-grade serous ovarian cancer cells); conditions: 72 h; library: FO5A; assay format: 2D, 384-well, CellTiter-Glo
Outline: as §1

[9] = system: FMOC11 (patient-derived high-grade serous ovarian cancer cells); conditions: 72 h; library: FO5A; assay format: 2D, 384-well, CellTiter-Glo
Outline: as §1

[10] = system: FMOC14 (patient-derived high-grade serous ovarian cancer cells); conditions: 72 h; library: FO5A; assay format: 2D, 384-well, CellTiter-Glo
Outline: as §1

[11] = system: FMOC27 (patient-derived low-grade serous ovarian cancer cells); conditions: 72 h; library: FO5A; assay format: 2D, 384-well, CellTiter-Glo
Outline: as §1

[12] = system: FMOC02_3 (patient-derived low-grade serous ovarian cancer cells); conditions: 72 h; library: FO5A; assay format: 2D, 384-well, CellTiter-Glo
Outline: as §1

[13] = system: FMOC25_1 (patient-derived low-grade serous ovarian cancer cells); conditions: 72 h; library: FO4B; assay format: 2D, 384-well, CellTiter-Glo
Outline: as §1

[14] = system: FMOC25_2 (patient-derived low-grade serous ovarian cancer cells); conditions: 72 h; library: FO5A; assay format: 2D, 384-well, CellTiter-Glo
Outline: as §1

[15] = system: FMOC02_2 (patient-derived low-grade serous ovarian cancer cells); conditions: 72 h; library: FO5A; assay format: 2D, 384-well, CellTiter-Glo
Outline: as §1

[16] = system: FMOC22 (patient-derived mucinous ovarian cancer cells); conditions: 72 h; library: FO5A; assay format: 2D, 384-well, CellTiter-Glo
Outline: as §1

SMILES | drug sensitivity score [1] | drug sensitivity score [2] | drug sensitivity score [3] | drug sensitivity score [4] | drug sensitivity score [5] | drug sensitivity score [6] | drug sensitivity score [7] | drug sensitivity score [8] | drug sensitivity score [9] | drug sensitivity score [10] | drug sensitivity score [11] | drug sensitivity score [12] | drug sensitivity score [13] | drug sensitivity score [14] | drug sensitivity score [15] | drug sensitivity score [16]
O=C(c1cccc(Cl)c1F)N1CCN(Cc2cccc(Nc3nccs3)n2)CC1 [MK-8745] | 1.3 | 0.2 | 0 | 1.3 | 0.2 | 2.1 | 5.8 | 7.1 | 4 | 0.2 | 0 | 5.7 | 0 | 4 | 6.1 | 1.8
Cn1cc(-c2cnn3c(N)c(Br)c([C@@H]4CCCNC4)nc23)cn1 [MK-8776] | 2.45 | 0.3 | 0 | 0 | 0 | 0.6 | 2.5 | 2 | 2.4 | 0.9 | 0 | 1.5 | 1.4 | 2.8 | 0 | 0
Cc1cnc(-c2ccccc2C(C)C)nc1NCc1ccc(-n2ccnn2)cc1 [ML323] | 0 | 0.8 | 0 | 0.9 | 0 | 0 | 0.9 | 0.1 | 0 | 0 | 0.6 | 0.2 | 0.6 | 1.7 | 3.1 | 0.3
CNC(=O)[C@@H](NC(=O)[C@H](CC(C)C)[C@H](O)C(=O)NO)C(C)(C)C [Marimastat] | 0 | 0 | 0 | 0 | 0.1 | 0 | 0 | 0.9 | 0.4 | 0 | 0 | 0 | 0.6 | 3.6 | 0 | 0
Cc1ccc(NC(=O)c2ccc(CN3CCN(C)CC3)cc2)cc1Nc1nc(-c2cccnc2)cs1 [Masitinib] | 0.9 | 5.6 | 4.4 | 3.6 | 2.7 | 4.2 | 1.2 | 2.8 | 3.9 | 5.4 | 0 | 4.8 | 2.2 | 3.9 | 2.4 | 2.6
CC(=O)O[C@]1(C(C)=O)CC[C@H]2[C@@H]3C=C(C)C4=CC(=O)CC[C@]4(C)[C@H]3CC[C@@]21C [Megestrol acetate] | 0 | 0 | 0.4 | 0.2 | 0 | 0 | 1 | 0.3 | 0 | 0 | 4.6 | 0 | 0 | 0 | 0 | 0
Cc1ccc(C(=O)Nc2ccc(Oc3cc4cnn(C)c4cc3-c3cn[nH]c3)c(F)c2)c(=O)n1-c1ccc(F)cc1 [Merestinib] | 0 | 1.15 | 1.1 | 1.3 | 1.6 | 0.3 | 1.4 | 1.1 | 0 | 0 | 0 | 4.4 | 2.7 | 4 | 1.9 | 0
CN(C)C(=N)NC(=N)N [Metformin] | 0 | 0 | 0 | 0 | 0 | 0 | 0 | 0 | 0 | 0 | 0 | 0 | 0 | 0 | 0 | 0
C[C@H]1C[C@@H]2[C@H]([C@@H](O)C[C@@]3(C)[C@H]2CC[C@]3(O)C(=O)CO)[C@@]2(C)C=CC(=O)C=C12 [Methylprednisolone] | 0 | 0 | 0.1 | 0 | 0.1 | 0 | 0 | 0 | 0.6 | 0 | 0 | 0 | 0 | 0 | 0 | 0
CO[C@@]12[C@H](COC(N)=O)C3=C(C(=O)C(C)=C(N)C3=O)N1C[C@@H]1N[C@@H]12 [Mitomycin C] | 0 | 0.45 | 0 | 0 | 2.7 | 0 | 0.8 | 0 | 1.6 | 0 | 0.1 | 1.9 | 3.6 | 3.7 | 0 | 0
Clc1ccc(C(c2ccccc2Cl)C(Cl)Cl)cc1 (centres undefined) [Mitotane] | 0 | 0 | 0 | 0 | 0 | 0 | 0 | 0 | 0 | 0 | 0 | 0 | 0 | 0 | 0 | 0
CC1(C)CNc2cc(NC(=O)c3cccnc3NCc3ccncc3)ccc21 [Motesanib] | 0 | 0.15 | 1.1 | 0 | 0 | 0 | 2.4 | 0 | 0.2 | 0 | 0.6 | 2.9 | 1 | 0.1 | 0.5 | 0
FC(F)(F)c1ccc(/C=C/c2nc(COc3ccc(CCCCn4ccnn4)cc3)co2)cc1 [Mubritinib] | 0 | 0 | 0.6 | 3.9 | 0 | 0 | 0 | 0 | 0.6 | 0.7 | 1.7 | 0 | 0.1 | 1.1 | 0 | 3
COc1nc(N)nc2c1ncn2[C@@H]1O[C@H](CO)[C@@H](O)[C@@H]1O [Nelarabine] | 0 | 1.75 | 1.7 | 0 | 0 | 0 | 0 | 0 | 0 | 0 | 0 | 0 | 0 | 0 | 0 | 0
Cc1cn(-c2cc(NC(=O)c3ccc(C)c(Nc4nccc(-c5cccnc5)n4)c3)cc(C(F)(F)F)c2)cn1 [Nilotinib] | 0 | 3.7 | 3.4 | 3.5 | 0.7 | 2.4 | 5.6 | 3 | 4.6 | 0.9 | 2.3 | 0 | 3.4 | 1.5 | 1.3 | 1
CC1(C)NC(=O)N(c2ccc([N+](=O)[O-])c(C(F)(F)F)c2)C1=O [Nilutamide] | 0 | 0.65 | 0 | 0 | 0 | 0.5 | 0 | 0 | 0 | 0 | 0.1 | 0 | 0 | 0 | 0 | 0
NC(=O)c1cccc2cn(-c3ccc([C@@H]4CCCNC4)cc3)nc12 [Niraparib] | 0.55 | 5.55 | 1.5 | 0 | 1.6 | 0 | 5.4 | 4.2 | 1.4 | 0 | 3.2 | 6.6 | 1.5 | 4.8 | 2.6 | 1.9
CNC(=O)c1ccc2cc([C@@]3(O)CCn4cncc43)ccc2c1 [Orteronel] | 0 | 0 | 0 | 0 | 0 | 0 | 0.2 | 0 | 0 | 0 | 0 | 0 | 0 | 1.4 | 0 | 0
C=CCc1cccc(/C=N/NC(=O)CN2CCN(Cc3ccccc3)CC2)c1O [PAC-1] | 0 | 1.2 | 3.7 | 5.6 | 4.8 | 1.3 | 7.1 | 0 | 3.1 | 5 | 0 | 0 | 0.4 | 2.1 | 3.6 | 3.5
O=C(Nc1cccnc1)N1CCC(Cc2cccc(Oc3ccc(C(F)(F)F)cn3)c2)CC1 [PF-3845] | 0 | 0.4 | 0.1 | 2.3 | 0 | 1.6 | 2.5 | 1.1 | 0 | 0 | 1.9 | 1.2 | 1.7 | 0 | 3.3 | 1.5
O=C(Nc1cc(Cl)cc2c1[nH]c1cnccc12)c1cccnc1 [PS-1145] | 0 | 2.75 | 0.8 | 0.1 | 1.1 | 2.3 | 3 | 2.2 | 0.8 | 0 | 0.7 | 7.2 | 3.2 | 2.7 | 4.6 | 0
CC(=O)c1c(C)c2cnc(Nc3ccc(N4CCNCC4)cn3)nc2n(C2CCCC2)c1=O [Palbociclib] | 0.65 | 2.95 | 2.5 | 2.7 | 0.5 | 0.7 | 3.9 | 3.8 | 1.4 | 1.6 | 1.1 | 6.2 | 2.5 | 5.2 | 4.9 | 0.5
COc1ccc(COc2cc3oc(=O)c4cc(C(C)O)ccc4c3cc2OC)cc1 (centres undefined) [Palomid-529] | 0 | 0 | 0 | 0 | 0.4 | 0 | 1.4 | 0 | 0.4 | 0 | 0 | 0 | 0 | 0.1 | 2.2 | 0
Cc1ccc(Nc2nccc(N(C)c3ccc4c(C)n(C)nc4c3)n2)cc1S(N)(=O)=O [Pazopanib] | 0 | 3.8 | 0 | 0 | 0 | 0 | 0 | 1.3 | 0 | 0 | 0.6 | 1.5 | 1.1 | 3 | 0.4 | 0
